According to the supplement of paper PMC11061612:

Experiments:
Assay in all cases: combination Emax (second highest fraction inhibited in the dose matrix, 72 h); higher = more inhibition; extreme values may be limits of the assay
[1] = tested on: NCCIT (Other Solid Carcinomas)
Outline: (§1)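 Cell lines grown in DMEM/F12 or RPMI with 10% FBS were plated in 1536-well plates and held 24 hours at 37°C, 5% CO2 before 72 hours of exposure to two-drug dose matrices, with DMSO typically at 0.2%. CellTiter-Glo 2.0 luminescence gave viability, which was converted to inhibition. Vehicle wells were set to 0 and blank wells to 1. Combination Emax is the second-highest inhibition in the matrix, and Bliss excess is the observed combination effect minus the expected EA + EB − EA·EB, where EA and EB are the single-agent effects.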

[2] = tested on: H9 (T-Cell Non-Hodgkin's Lymphoma)
Outline: as §1

[3] = tested on: MOLM-13 (Acute Myeloid Leukemia)
Outline: as §1

[4] = tested on: MOG-G-CCM (Low Grade Glioma)
Outline: as §1

[5] = tested on: RPMI-8226 (Plasma Cell Myeloma)
Outline: as §1

[6] = tested on: DMS-114 (Small Cell Lung Carcinoma)
Outline: as §1

[7] = tested on: NCI-H929 (Plasma Cell Myeloma)
Outline: as §1

[8] = tested on: CW-2 (Colorectal Carcinoma)
Outline: as §1

[9] = tested on: SNU-398 (Hepatocellular Carcinoma)
Outline: as §1

[10] = tested on: HCC1187 (Breast Carcinoma)
Outline: as §1

[11] = tested on: SJSA-1 (Osteosarcoma)
Outline: as §1

[12] = tested on: PC-3 (Prostate Carcinoma)
Outline: as §1

[13] = tested on: T-T (Esophageal Squamous Cell Carcinoma)
Outline: as §1

[14] = tested on: CHSA8926 (Chondrosarcoma)
Outline: as §1

[15] = tested on: ESO51 (Esophageal Adenocarcinoma)
Outline: as §1

[16] = tested on: G-361 (Melanoma)
Outline: as §1

[17] = tested on: SUP-B15 (B-Lymphoblastic Leukemia)
Outline: as §1

[18] = tested on: HCC1419 (Breast Carcinoma)
Outline: as §1

[19] = tested on: NCI-H661 (Non-Small Cell Lung Carcinoma)
Outline: as §1

[20] = tested on: DAN-G (Pancreatic Carcinoma)
Outline: as §1

| SMILES | combination Emax [1] | combination Emax [2] | combination Emax [3] | combination Emax [4] | combination Emax [5] | combination Emax [6] | combination Emax [7] | combination Emax [8] | combination Emax [9] | combination Emax [10] | combination Emax [11] | combination Emax [12] | combination Emax [13] | combination Emax [14] | combination Emax [15] | combination Emax [16] | combination Emax [17] | combination Emax [18] | combination Emax [19] | combination Emax [20] |
| --- | --- | --- | --- | --- | --- | --- | --- | --- | --- | --- | --- | --- | --- | --- | --- | --- | --- | --- | --- | --- |
| Cc1c2c(nn1C)CSCc1cc(n(C)n1)CSc1cc(c3ccccc3c1)OCCCc1c(C(=O)O)n(C)c3c-2c(Cl)ccc13 [AZD5991] + Cn1cnc2c(F)c(Nc3ccc(Br)cc3Cl)c(C(=O)NOCCO)cc21 [Selumetinib] (first compound max 1 µM, 7x7, partner max 3 µM) | 0.579 | 1 | 1 | 0.195 | 0.96 | 0.43 | 1 | 0.314 | 1 | 0.986 | 0.457 | 0.245 | 0.936 | 0.303 | 0.361 | 0.992 | 1 | 0.284 | 0.462 | 0.84 |
| COc1cccc(OCCCN)c1-c1cc(Nc2cnc(C#N)cn2)n[nH]1 [Prexasertib] + Cc1cc2ncnn2cc1Nc1ncc2c(n1)n(C1CCOCC1)c(=O)n2C [AZD7648] (first compound max 1 µM, 7x7, partner max 10 µM) | 0.801 | 1 | 1 | 0.702 | 0.995 | 0.477 | 0.847 | 0.474 | 0.441 | 0.614 | 0.656 | 0.358 | 0.65 | 0.416 | 0.777 | 0.696 | 0.966 | 0.288 | 0.75 | 0.816 |
| COc1cccc(OCCCN)c1-c1cc(Nc2cnc(C#N)cn2)n[nH]1 [Prexasertib] + C[C@@H]1COCCN1C2=NC(=NC(=C2)C3(CC3)[S@](=N)(=O)C)C4=C5C=CNC5=NC=C4 [AZD6738] (first compound max 1 µM, 7x7, partner max 10 µM) | 0.797 | 1 | 1 | 0.644 | 1 | 0.514 | 0.741 | 0.614 | 0.437 | 0.614 | 0.575 | 0.431 | 0.742 | 0.361 | 0.779 | 0.655 | 0.962 | 0.449 | 0.744 | 0.769 |
| Cc1cc2ncnn2cc1Nc1ncc2c(n1)n(C1CCOCC1)c(=O)n2C [AZD7648] + CN(C)CCCOc1ccc(-c2ccc3ncc4c(c3c2)n(C2CCOCC2)c(=O)n4C)cn1 [AZD0156] (first compound max 10 µM, 7x7, partner max 1 µM) | 0.282 | 0.331 | 0.523 | 0.256 | 0.248 | 0.293 | 0.855 | 0.207 | 0.194 | 0.104 | 0.456 | 0.257 | 0.246 | 0.446 | 0.192 | 0.217 | 0.174 | 0.358 | 0.237 | 0.597 |
| Cn1cnc2c(F)c(Nc3ccc(Br)cc3Cl)c(C(=O)NOCCO)cc21 [Selumetinib] + CC(C)n1c(=O)n(C)c2cnc3cc(F)c(-c4ccc(OCCCN5CCCCC5)nc4)cc3c21 [AZD1390] (first compound max 10 µM, 7x7, partner max 0.3 µM) | 0.0608 | 0.978 | 0.767 | 0.125 | 0.26 | 0.199 | 0.611 | 0.252 | 0.278 | 0.179 | 0.307 | 0.0591 | 0.264 | 0.185 | 0.434 | 0.674 | 0.328 | 0.152 | 0.0857 | 0.15 |
| CCN(CCO)CCCOc1ccc2c(Nc3cc(CC(=O)Nc4cccc(F)c4)[nH]n3)ncnc2c1 [AZD2811] + C[C@@H]1COCCN1C2=NC(=NC(=C2)C3(CC3)[S@](=N)(=O)C)C4=C5C=CNC5=NC=C4 [AZD6738] (first compound max 1 µM, 7x7, partner max 10 µM) | 0.561 | 0.977 | 1 | 0.492 | 0.967 | 0.435 | 0.641 | 0.524 | 0.485 | 0.846 | 0.289 | 0.431 | 0.42 | 0.332 | 0.751 | 0.441 | 0.914 | 0.0919 | 0.441 | 0.648 |
| CCN(CCO)CCCOc1ccc2c(Nc3cc(CC(=O)Nc4cccc(F)c4)[nH]n3)ncnc2c1 [AZD2811] + C=CCn1c(=O)c2cnc(Nc3ccc(N4CCN(C)CC4)cc3)nc2n1-c1cccc(C(C)(C)O)n1 [AZD1775] (first compound max 1 µM, partner max 1 µM) | 0.781 | 0.985 | 1 | 0.377 | 0.562 | 0.243 | 0.323 | 0.274 | 0.417 | 0.839 | 0.289 | 0.237 | 0.303 | 0.455 | 0.627 | 0.477 | 0.966 | 0.0861 | 0.543 | 0.623 |
